Results published in patent US11802120B2, “Fused cyclic urea derivatives as CRHR2 antagonist” (RaQualia Pharma Inc., priority 2018, dated 2023).
pIC50: −log10 of the molar value.

molecular target: T1, human CRHR2-alpha (Homo sapiens, UniProt Q13324); assay: cAMP functional assay for human CRHR2 (LANCE Ultra cAMP, TR-FRET); format: cell-based; settings: CHO-K1 cells expressing human CRHR2-alpha, agonist human urocortin2 at EC80, cAMP; read-out: IC50 against CRHR2
T1 sequence (Q13324 1-411): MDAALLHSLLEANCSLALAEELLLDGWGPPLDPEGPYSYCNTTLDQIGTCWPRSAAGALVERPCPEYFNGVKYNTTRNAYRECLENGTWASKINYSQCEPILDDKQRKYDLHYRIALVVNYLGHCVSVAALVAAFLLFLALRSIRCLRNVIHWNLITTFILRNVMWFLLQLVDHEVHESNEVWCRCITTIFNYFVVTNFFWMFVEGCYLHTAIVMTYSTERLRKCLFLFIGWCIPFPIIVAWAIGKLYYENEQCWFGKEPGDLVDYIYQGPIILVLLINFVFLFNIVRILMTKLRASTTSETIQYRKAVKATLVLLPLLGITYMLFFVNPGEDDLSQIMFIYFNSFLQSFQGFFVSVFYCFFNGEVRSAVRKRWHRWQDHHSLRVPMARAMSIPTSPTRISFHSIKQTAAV
Description: cAMP functional assay for human CRHR1 and CRHR2
The ability of the compounds of this invention to inhibit either CRHR2 or CRHR1 is assessed by 3′,5′-cyclic adenosine monophosphate (cAMP) production in cells using the LANCE Ultra cAMP assay kit (ParkinElmer), which are designed based on the homogeneous time-resolved fluorescence resonance energy transfer (TR-FRET) immunoassay.
CHO-K1 (Chinese hamster ovary) cells stably expressing either human CRHR2-alpha (DiscoveRX, Cat. 95-0048C2) or human CRHR1-beta (DiscoveRX, Cat. 95-0047C2) are grown in HAM's F12 media supplemented with 10% fetal bovine serum (FBS), 100 units/mL penicillin, 100 microg/mL hygromycin and 0.5 microg/mL geneticin at 37° C. in 5% CO2 humidified incubator to 80% confluence. After 7 hours starvation treatment in culture media containing 0.1% FBS, the cells are washed with Hanks balanced salt solution (HBSS) and cryopreserved.
For cAMP assay, frozen cells are thawed and washed with HBSS, followed by resuspended in assay buffer (HBSS containing 0.1% bovine serum albumin, 0.5 mM isobutylmethylxanthine and 5 mM Hepes, pH 7.4) at the appropriate concentration for the assay. The cell suspensions are plated on 384-well microplates (Greiner Bio-One) at a density of 4,000 cells per well. After preincubating the cells with various concentrations of the compounds for 30 min at 25° C., an assay buffer containing EC80 concentration of each agonist is added and the cells are incubated for 30 min at 25° C. Human urocortin2 (Peptide Institute) and CRF (Peptide Institute) are used as agonists for CRHR2 and CRHR1, respectively. For the termination of assay, europium-labeled cAMP tracer and ULight (registered trademark) dye labeled cAMP antibodies, both prepared with Lance-Ultra cAMP detection reagent (Perkin Elmer) are added in the plate and incubate for 60 min at 25° C. After incubation, TR-FRET signal is detected by EnVision plate reader (PerkinElmer). The IC50 values for compounds are calculated from dose-response curves by fitting the percent inhibition using XLfit (ID Business Solutions).

Row | SMILES | pIC50
1 | CCOc1ccc(-n2c(=O)n(C[C@H]3CC[C@H](NC(=O)c4cc(Cl)cnc4C)CC3)c3ccccc32)cn1 [Example 36, 5-chloro-N-((1r,4r)-4-((3-(6-ethoxypyridin-3-yl)-2-oxo-2,3-dihydro-1H-benzo[d]imidazol-1-yl)methyl)cyclohexyl)-2-methylnicotinamide] | > 6.52
2 | CCn1nc2ccccc2c1C(=O)N[C@H]1CC[C@H](Cn2c(=O)n(-c3ccc(OC)cc3)c3ccccc32)CC1 [Example 37, 2-ethyl-N-((1r,4r)-4-((3-(4-methoxyphenyl)-2-oxo-2,3-dihydro-1H-benzo[d]imidazol-1-yl)methyl)cyclohexyl)-2H-indazole-3-carboxamide] | > 6.52
3 | CCn1nc2ccccc2c1C(=O)N[C@H]1CC[C@H](Cn2c(=O)n(-c3ccc(C)nc3)c3ccccc32)CC1 [Example 38, 2-ethyl-N-((1r,4r)-4-((3-(6-methylpyridin-3-yl)-2-oxo-2,3-dihydro-1H-benzo[d]imidazol-1-yl)methyl)cyclohexyl)-2H-indazole-3-carboxamide] | > 6.52
4 | CCn1nc2ccccc2c1C(=O)N[C@H]1CC[C@H](Cn2c(=O)n(-c3ccc(OC)nc3)c3ccccc32)CC1 [Example 39, 2-ethyl-N-((1r,4r)-4-((3-(6-methoxypyridin-3-yl)-2-oxo-2,3-dihydro-1H-benzo[d]imidazol-1-yl)methyl)cyclohexyl)-2H-indazole-3-carboxamide] | > 6.52
5 | CCn1nc2ccccc2c1C(=O)N[C@H]1CC[C@H](Cn2c(=O)n(-c3ccc(C(C)=O)cc3)c3ccccc32)CC1 [Example 41, N-((1r,4r)-4-((3-(4-acetylphenyl)-2-oxo-2,3-dihydro-1H-benzo[d]imidazol-1-yl)methyl)cyclohexyl)-2-ethyl-2H-indazole-3-carboxamide] | > 6.52
6 | CCn1nc2ccccc2c1C(=O)N[C@H]1CC[C@H](Cn2c(=O)n(-c3ccc(C(C)O)cc3)c3ccccc32)CC1 (stereo partly shown) [Example 42, 2-ethyl-N-((1r,4r)-4-((3-(4-(1-hydroxyethyl)phenyl)-2-oxo-2,3-dihydro-1H-benzo[d]imidazol-1-yl)methyl)cyclohexyl)-2H-indazole-3-carboxamide] | > 6.52
7 | COc1ccc(-n2c(=O)n(C[C@H]3CC[C@H](NC(=O)c4cc(Cl)cnc4C)CC3)c3ccccc32)cc1OC [Example 44, 5-chloro-N-((1r,4r)-4-((3-(3,4-dimethoxyphenyl)-2-oxo-2,3-dihydro-1H-benzo[d]imidazol-1-yl)methyl)cyclohexyl)-2-methylnicotinamide] | > 6.52
8 | Cc1ncc(Cl)cc1C(=O)N[C@H]1CC[C@H](Cn2c(=O)n(-c3ccc(F)cc3F)c3ccccc32)CC1 [Example 46, 5-chloro-N-((1r,4r)-4-((3-(2,4-difluorophenyl)-2-oxo-2,3-dihydro-1H-benzo[d]imidazol-1-yl)methyl)cyclohexyl)-2-methylnicotinamide] | > 6.52
9 | Cc1ncc(Cl)cc1C(=O)N[C@H]1CC[C@H](Cn2c(=O)n(-c3ccc(N(C)C)nc3)c3ccccc32)CC1 [Example 52, 5-chloro-N-((1r,4r)-4-((3-(6-(dimethylamino)pyridin-3-yl)-2-oxo-2,3-dihydro-1H-benzo[d]imidazol-1-yl)methyl)cyclohexyl)-2-methylnicotinamide] | > 6.52
10 | COCCN(C)c1ccc(-n2c(=O)n(C[C@H]3CC[C@H](NC(=O)c4cc(Cl)cnc4C)CC3)c3ccccc32)cn1 [Example 53, 5-chloro-N-((1r,4r)-4-((3-(6-((2-methoxyethyl)(methyl)amino)pyridin-3-yl)-2-oxo-2,3-dihydro-1H-benzo[d]imidazol-1-yl)methyl)cyclohexyl)-2-methylnicotinamide] | > 6.52
11 | Cc1ncc(Cl)cc1C(=O)N[C@H]1CC[C@H](Cn2c(=O)n(-c3ccc(N4CCOCC4)nc3)c3ccccc32)CC1 [Example 54, 5-chloro-2-methyl-N-((1r,4r)-4-((3-(6-morpholinopyridin-3-yl)-2-oxo-2,3-dihydro-1H-benzo[d]imidazol-1-yl)methyl)cyclohexyl) nicotinamide] | > 6.52
12 | Cc1ncc(Cl)cc1C(=O)N[C@H]1CC[C@H](Cn2c(=O)n(-c3ccc(N4CCN(C)CC4)nc3)c3ccccc32)CC1 [Example 55, 5-chloro-2-methyl-N-((1r,4r)-4-((3-(6-(4-methylpiperazin-1-yl)pyridin-3-yl)-2-oxo-2,3-dihydro-1H-benzo[d]imidazol-1-yl)methyl)cyclohexyl)nicotinamide] | > 6.52
13 | Cc1ccc(-n2c(=O)n(C[C@H]3CC[C@H](NC(=O)c4cc(Cl)cnc4C)CC3)c3cccc(C)c32)cn1 [Example 57, 5-chloro-2-methyl-N-((1r,4r)-4-((4-rrethyl-3-(6-methylpyridin-3-yl)-2-oxo-2,3-dihydro-1H-benzo[d]imidazol-1-yl)methyl)cyclohexyl)nicotinamide] | > 6.52
14 | COc1ccc(-n2c(=O)n(C[C@H]3CC[C@H](NC(=O)c4cc(Cl)cnc4C)CC3)c3cccc(C)c32)cn1 [Example 58, 5-chloro-N-((1r,4r)-4-((3-(6-methoxypyridin-3-yl)-4-methyl-2-oxo-2,3-dihydro-1H-benzo[d]imidazol-1-yl)methyl)cyclohexyl)-2-methylnicotinamide] | > 6.52
15 | Cc1ncc(Cl)cc1C(=O)N[C@H]1CC[C@H](Cn2c(=O)n(-c3ccc(Br)nc3)c3ccccc32)CC1 [Example 66, N((1r,4r)-4-((3-(6-bromopyridin-3-yl)-2-oxo-2,3-dihydro-1H-benzo[d]imidazol-1-yl)methyl)cyclohexyl)-5-chloro-2-methylnicotinamide] | > 6.52

Further lines, results first:

Row | pIC50 | SMILES
16 | > 6.52 | Cc1ncc(Cl)cc1C(=O)N[C@H]1CC[C@H](Cn2c(=O)n(CC(=O)c3ccccc3)c3ccccc32)CC1 [Example 5, 5-chloro-2-methyl-N-((1r,4r)-4-((2-oxo-3-(2-oxo-2-phenylethyl)-2,3-dihydro-1H-benzo[d]imidazol-1-yl)methyl)cyclohexyl)nicotinamide]
17 | > 6.52 | COc1ccc(C(=O)Cn2c(=O)n(C[C@H]3CC[C@H](NC(=O)c4cc(Cl)cnc4C)CC3)c3ccccc32)cc1 [Example 9, 5-chloro-N-((1r,4r)-4-((3-(2-(4-methoxyphenyl)-2-oxoethyl)-2-oxo-2,3-dihydro-1H-benzo[d]imidazol-1-yl)methy)cyclohexyl)-2-methylnicotinamide]
18 | > 6.52 | COc1ccccc1C(=O)Cn1c(=O)n(C[C@H]2CC[C@H](NC(=O)c3cc(Cl)cnc3C)CC2)c2ccccc21 [Example 10, 5-chloro-N-((1r,4r)-4-((3-(2-(2-methoxyphenyl)-2-oxoethyl)-2-oxo-2,3-dihydro-1H-benzo[d]imidazol-1-yl)methyl)cyclohexyl)-2-methylnicotinamide]
19 | > 6.52 | Cc1ncc(Cl)cc1C(=O)N[C@H]1CC[C@H](Cn2c(=O)n(CC(=O)c3ccc(F)cc3F)c3ccccc32)CC1 [Example 12, 5-chloro-N-((1r,4r)-4-((3-(2-(2,4-difluorophenyl)-2-oxoethyl)-2-oxo-2,3-dihydro-1H-benzo[d]imidazol-1-yl)methyl)cyclohexyl)-2-methylnicotinamide]
20 | > 6.52 | Cc1ncc(Cl)cc1C(=O)N[C@H]1CC[C@H](Cn2c(=O)n(CC(=O)c3ccc(C#N)cc3)c3ccccc32)CC1 [Example 13, 5-chloro-N-((1r,4r)-4-((3-(2-(4-cyanophenyl)-2-oxoethyl)-2-oxo-2,3-dihydro-1H-benzo[d]imidazol-1-yl)methyl)cyclohexyl)-2-methylnicotinamide]
21 | > 6.52 | Cc1ncc(Cl)cc1C(=O)N[C@H]1CC[C@H](Cn2c(=O)n(-c3ccccc3F)c3ccccc32)CC1 [Example 33, 5-chloro-N-((1r,4r)-4-((3-(2-fluorophenyl)-2-oxo-2,3-dihydro-1H-benzo[d]imidazol-1-yl)methyl)cyclohexyl)-2-methylnicotinamide]
22 | > 6.52 | Cc1ncc(Cl)cc1C(=O)N[C@H]1CC[C@H](Cn2c(=O)n(-c3ccc(OCC(F)F)nc3)c3ccccc32)CC1 [Example 35, 5-chloro-N-((1r,4r)-4-((3-(6-(2,2-difluoroethoxy)pyridin-3-yl)-2-oxo-2,3-dihydro-1H-benzo[d]imidazol-1-yl)methyl)cyclohexyl)-2-methylnicotinamide]
